Experimental data: the supplement of paper PMC10307832

Tests used:
Assay in all cases: relative viability (nuclei count vs DMSO), 5 days (fraction); higher = more cells survive
AZD1208 + Pemetrexed = compound: N[C@@H]1CCCN(c2c(/C=C3\SC(=O)NC3=O)cccc2-c2ccccc2)C1 [AZD1208] + Nc1nc2[nH]cc(CCc3ccc(C(=O)N[C@@H](CCC(=O)O)C(=O)O)cc3)c2c(=O)[nH]1 [Pemetrexed] (partner 0.2 µM)
Procedure, shortened: (§1)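 For relative viability, nuclei counts in treated wells were divided by those in vehicle wells. Lung cancer cell lines had been pin-tool dosed in 1536-well plates the day after seeding and cultured for 5 days, then fixed and stained in one step (final 0.05% Triton X-100, 1% formaldehyde, 1 ug/ml Hoechst) and imaged at 4×. Doses were one drug alone or a fixed anchor-drug dose plus five library-drug doses (not always all listed) in √10 steps, and values are duplicate-plate medians.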

AZD1208 + Tozasertib = compound: N[C@@H]1CCCN(c2c(/C=C3\SC(=O)NC3=O)cccc2-c2ccccc2)C1 [AZD1208] + Cc1cc(Nc2cc(N3CCN(C)CC3)nc(Sc3ccc(NC(=O)C4CC4)cc3)n2)n[nH]1 [Tozasertib] (partner 0.1 µM)
Procedure, shortened: as §1

XMD14-99 + Pemetrexed = compound: CN1CCN(CC1)C2=CC(=C(C=C2)NC3=NC(=C(S3)C(=O)C4=C(C=CC=C4Cl)Cl)N)OC [XMD14-99] + Nc1nc2[nH]cc(CCc3ccc(C(=O)N[C@@H](CCC(=O)O)C(=O)O)cc3)c2c(=O)[nH]1 [Pemetrexed] (partner 0.2 µM)
Procedure, shortened: as §1

AZD1208 + Foretinib = compound: N[C@@H]1CCCN(c2c(/C=C3\SC(=O)NC3=O)cccc2-c2ccccc2)C1 [AZD1208] + COc1cc2c(Oc3ccc(NC(=O)C4(C(=O)Nc5ccc(F)cc5)CC4)cc3F)ccnc2cc1OCCCN1CCOCC1 [Foretinib] (partner 0.25 µM)
Procedure, shortened: as §1

Row | Cell Line | relative viability (AZD1208 + Pemetrexed; first compound 0.08 µM) | relative viability (AZD1208 + Pemetrexed; first compound 0.253 µM) | relative viability (AZD1208 + Pemetrexed; first compound 0.8 µM) | relative viability (AZD1208 + Pemetrexed; first compound 2.53 µM) | relative viability (AZD1208 + Pemetrexed; first compound 8 µM) | relative viability (AZD1208 + Tozasertib; first compound 0.08 µM) | relative viability (AZD1208 + Tozasertib; first compound 0.253 µM) | relative viability (AZD1208 + Tozasertib; first compound 0.8 µM) | relative viability (AZD1208 + Tozasertib; first compound 2.53 µM) | relative viability (AZD1208 + Tozasertib; first compound 8 µM) | relative viability (XMD14-99 + Pemetrexed; first compound 0.08 µM) | relative viability (XMD14-99 + Pemetrexed; first compound 0.8 µM) | relative viability (XMD14-99 + Pemetrexed; first compound 2.53 µM) | relative viability (XMD14-99 + Pemetrexed; first compound 8 µM) | relative viability (AZD1208 + Foretinib; first compound 0.08 µM) | relative viability (AZD1208 + Foretinib; first compound 0.253 µM) | relative viability (AZD1208 + Foretinib; first compound 0.8 µM) | relative viability (AZD1208 + Foretinib; first compound 2.53 µM) | relative viability (AZD1208 + Foretinib; first compound 8 µM)
1 | NCI-H522 | 0.975 | 0.986 | 0.979 | 0.824 | 0.828 | 0.534 | 0.619 | 0.492 | 0.514 | 0.446 | 0.867 | 1.04 | 1.14 | 1.08 | – | – | – | – | –
2 | HCC-15 | 0.215 | 0.214 | 0.225 | 0.237 | 0.213 | 0.362 | 0.306 | 0.241 | 0.186 | 0.184 | 0.208 | 0.218 | 0.221 | 0.209 | 0.956 | 0.994 | 0.876 | 0.88 | 0.855
3 | A-427 | 0.971 | 1.05 | 0.847 | 1.03 | 0.911 | 0.196 | 0.195 | 0.212 | 0.18 | 0.185 | 0.952 | 0.946 | 0.892 | 0.645 | 0.924 | 1.01 | 0.905 | 0.865 | 0.813
4 | NCI-H23 | 0.604 | 0.698 | 0.632 | 0.704 | 0.703 | 0.4 | 0.365 | 0.336 | 0.376 | 0.272 | 0.687 | 0.783 | 0.745 | 0.494 | 0.914 | 0.648 | 0.9 | 0.967 | 0.748
5 | NCI-H1734 | 0.404 | 0.409 | 0.442 | 0.427 | 0.435 | 0.272 | 0.26 | 0.247 | 0.219 | 0.227 | 0.42 | 0.409 | 0.406 | 0.4 | 0.773 | 0.814 | 0.738 | 0.755 | 0.56
6 | NCI-H1993 | 0.481 | 0.527 | 0.526 | 0.568 | 0.413 | 0.667 | 0.52 | 0.526 | 0.566 | 0.543 | 0.708 | 0.541 | 0.524 | 0.448 | 0.763 | 0.664 | 0.581 | 0.71 | 0.713
7 | PC-3 [JPC-3] | 1.22 | 1.04 | 1.09 | 1.18 | 1.2 | 0.9 | 0.989 | 0.906 | 0.886 | 0.78 | 1.28 | 1.13 | 1.1 | 0.635 | 1.11 | 1.06 | 1.14 | 1.13 | 1.04
8 | NCI-H1915 | 0.452 | 0.483 | 0.528 | 0.462 | 0.443 | 0.427 | 0.378 | 0.367 | 0.249 | 0.244 | 0.472 | 0.475 | 0.431 | 0.426 | 1.12 | 1.09 | 1.11 | 1.11 | 1.03
9 | NCI-H1666 | 0.826 | 0.874 | 0.792 | 0.823 | 0.896 | 0.535 | 0.6 | 0.513 | 0.644 | 0.58 | 0.853 | 0.857 | 0.781 | 0.764 | 0.906 | 1 | 0.953 | 0.954 | 0.975
10 | HCC-366 | 0.182 | 0.206 | 0.194 | 0.581 | 0.223 | 0.118 | 0.125 | 0.12 | 0.098 | 0.0502 | 0.219 | 0.18 | 0.18 | 0.128 | 0.903 | 0.985 | 0.843 | 0.949 | 0.899
11 | SK-MES-1 | 0.993 | 0.999 | 0.956 | 0.842 | 0.864 | 1 | 0.956 | 0.903 | 0.853 | 0.744 | 0.939 | 0.833 | 0.882 | 0.659 | 0.84 | 0.949 | 0.817 | 0.769 | 0.661
12 | NCI-H727 | – | – | – | – | – | 0.673 | 0.636 | 0.568 | 0.566 | 0.585 | – | – | – | – | 0.843 | 0.938 | 0.737 | 0.533 | 0.781
13 | RERF-LC-KJ | 0.515 | 0.441 | 0.505 | 0.476 | 0.491 | 0.505 | 0.423 | 0.56 | 0.519 | 0.384 | 0.469 | 0.506 | 0.452 | 0.449 | 0.865 | 0.859 | 0.682 | 0.7 | 0.546
14 | NCI-H1623 | – | – | – | – | – | 0.456 | 0.394 | 0.403 | 0.426 | 0.393 | – | – | – | – | 0.838 | 0.763 | 0.801 | 0.837 | 0.771
15 | Calu-6 | – | – | – | – | – | – | – | – | – | – | – | – | – | – | 0.861 | 0.938 | 0.946 | 0.867 | 0.747
16 | LC-2-ad | 0.246 | 0.278 | 0.269 | 0.246 | 0.272 | 0.397 | 0.381 | 0.355 | 0.363 | 0.318 | 0.268 | 0.298 | 0.268 | 0.293 | 0.903 | 0.924 | 0.871 | 0.85 | 0.912
17 | CAL-12T | 1.21 | 1.22 | 1.18 | 1.23 | 1.14 | 0.35 | 0.355 | 0.322 | 0.323 | 0.271 | 1.2 | 1.28 | 1.12 | 0.885 | 1.1 | 1.28 | 1.04 | 1.35 | 1.38
18 | SK-LU-1 | 0.956 | 1.02 | 0.988 | 0.944 | 0.869 | 0.298 | 0.298 | 0.246 | 0.285 | 0.22 | 0.98 | 1.02 | 0.942 | 0.684 | 0.794 | 0.917 | 0.8 | 0.721 | 0.661
19 | NCI-H1650 | 0.4 | 0.421 | 0.368 | 0.401 | 0.478 | 0.423 | 0.387 | 0.277 | 0.321 | 0.304 | 0.387 | 0.369 | 0.359 | 0.321 | 1.08 | 0.993 | 1.17 | 1.05 | 1.1
